Experiments:
HeLa cells [1] = experiment: Flow cytometry (FACS) DNA content / cell cycle profile; format: cell-based, human; conditions: 24 h
Procedure: Adherent HeLa cells were routinely passaged and maintained in D-MEM medium supplemented with 10% Fetal Bovine Serum (FBS), 1% Penicillin/Streptomycin and 2 mM L-Glutamine. The cells were cultured at 37 °C; 5% CO2. hTERT-RPE1 cells were grown in DMEM with 10% fetal bovine serum. HeLa cells constitutively expressing green fluorescent protein-conjugated Histone H2B and mRed fluorescent protein-conjugated α-tubulin were maintained in D-MEM medium supplemented with 10% Fetal Bovine Serum (FBS), 1% Penicillin/Streptomycin, 2 mM L-Glutamine and 0.5 µg/mL Puromycin and cultured at 37 °C; 5% CO2.
After treatment, FACS analysis was performed on a BD FACSCanto™ Flow Cytometer (Cat.No. 335860 BD Biosciences) using FACSDiva Software. Cells were trypsinized, washed wish PBS and fixed overnight in EtOH (-20°C). After washing with PBS, cells were stained with a propidium iodide solution (PI; 15 µg/mL)/ RNase A (30 µg/mL) for 30 min at 37 °C. RNase was added to avoid signals caused by the binding of PI to RNA.
We first examined by flow cytometry the cell cycle profiles of HeLa cells incubated in medium containing increasing concentrations of any of (A) or (C) for 24 h.

[2] = tested on: histone H3 phosphorylation on Ser 10; experiment: Western Blot analysis of histone H3 phosphorylation in mitotic cells; format: cell-based, human; conditions: mitotic HeLa cells synchronized with nocodazole, treated 20 h, any of the concentrations tested
Procedure: For Western Blot analysis of HH3 phosphorylation levels in mitosis HeLa cells were arrested with 2 mM thymidine for 18 h, released into fresh medium for 6 h, and blocked with 2 µM nocodazole for 16 h. DMSO or the different compounds were added 1 h after thymidine release. Mitotic cells were shaken off and lysed in 50 mM Tris pH 6,8- 2% SDS. Samples were sonicated and boiled. 30 µg protein extract (as determined by Bradford assay, Bio-Rad protein assay) was loaded on SDS-PAGE, transferred to a nitrocellulose membrane and blotted with anti-phospho HH3 (Upstate), anti-Aurora A and anti-tubulin antibodies (Sigma, DM1A).

[3] = tested on: H2B-GFP/mRFP-αTubulin HeLa cells; experiment: Time-lapse video microscopy of live cells; format: cell-based, human; conditions: 2 µM
Procedure: Upon treatment, living cells were added to a humidified chamber at 37 °C with 5% CO2 attached to a Carl Zeiss microscope (SN:3834000366) equipped with a Hamamatsu EM-CCD digital camera, controlled by AxioVision 4.6 software. Cells were imaged every 3 or 4.5 min (depending on the number of fields filmed) for over 16 h-24 h. Images were taken with the AxioCam MRm 426205 objective and processed using AxioVision software.
The increase in the proportion of cells with more than 2n DNA content could be due to several causes: several cycles of DNA replication or cytokinesis errors as shown for cells treated with other Aurora inhibitors. To determine the primary cause for the phenotype produced by (C) and examine whether (A) may interfere with mitosis, we examined live cells by time-lapse video microscopy. To visualize DNA and microtubules we used a HeLa stable cell line expressing H2B-GFP and mRFP-αTubulin. […] The resulting time-lapse images were used to determine the following parameters: (1) the percentage of cell death among non dividing cells (Figure 4A), (2) the percentage of cells entering mitosis (Figure 4B), (3) the outcome of mitosis: normal division (cell division), return to interphase without chromatin segregation and without dividing (no division), cytokinesis failure (division errors), cell death without resolving mitosis (cell death) (Figure 4C), and (4) the length of time spent in mitosis (TIM), defined as the interval between DNA condensation and anaphase resolution (Figure 4D).

HeLa cells [4] = experiment: Fixed cell analysis of mitotic phenotypes (fluorescence / immunofluorescence); format: cell-based, human; conditions: 2 µM, 24 h
Procedure: For fixed cell analysis, HeLa or H2B-GFP/mRFP-αTubulin HeLa cells were grown on glass coverslips and treated as described above. Cells were fixed in ice cold methanol and mounted in Mowiol. Alternatively, non fluorescent HeLa were treated and subjected to immunofluorescence with anti-tubulin antibodies (Sigma, DM1A) and Hoechst to stain the DNA. Cells were observed on a Leica DM16000B microscope with the HCX PL APO CS 63x 1.4 objective. Images were taken with a Leica DFC 350FX camera, controlled by Leica Application Suit (LAS-AF 6000) software and processed with Adobe Photoshop.
To get a better idea about the defects causing cell division failure in cells treated with (C), we examined fixed cells to better visualize the chromosomes and the microtubules. […] In parallel, standard HeLa cells were treated in the same way. The cells were fixed and processed for immunofluorescence with anti-tubulin antibodies to visualize the microtubules and Hoechst to stain the DNA.

hTERT-RPE1 cells = experiment: Cilia disassembly assay; format: cell-based; conditions: pretreatment 1-2 µM, serum stimulation after 48 h starvation
Procedure: Cilia assembly and disassembly assays were performed as described in Pugacheva et al., Cell 2007, 129, 1351-1363. […] For analysis of cilia disassembly, cilia were assembled by 48 h starvation in Opti-MEM, and disassembled by incubation in DMEM-10% serum. Cells were fixed after 2 and 4 h. […] To visualize the centrosomes and the cilia, fixed cells were immunostained with anti-γ-tubulin (Sigma GTU88) and anti-acetylated-tubulin (Sigma), and DNA was stained with Hoechst.

COc1cc2c(Nc3ccc(NC(=O)c4ccccc4)cc3)ncnc2cc1OCCCN1CCOCC1 [ZM1, reference compound]
% of cells 2<n<4 (HeLa cells [1]; 2µM, HeLa cells): 2.8%
% of cells 2n (HeLa cells [1]; 2µM, HeLa cells): 1.2%
% of cells 4n (HeLa cells [1]; 2µM, HeLa cells): 51.1%
% of cells <2n (HeLa cells [1]; 2µM, HeLa cells): 3.0%
% of cells >4n (HeLa cells [1]; 2µM, HeLa cells): 43.5%
effect on DNA content / distribution of cells in the cell cycle stages (HeLa cells [1]; ZM1 2 µM, (A) and (C) increasing concentrations): increased the proportion of cells with 4n and 8n DNA content
HH3-Ser10 phosphorylation [2]: strongly reduced
time spent in mitosis (TIM) [3]: 306 min
number of cells entering mitosis ([3]; 16 h-24 h): decreased by half
cells that de-condensed their DNA and went back to interphase without chromosome segregation ([3]; of cells in mitosis): 76%
mitotic phenotype of fixed cells (HeLa cells [4]): strong increase of the number of mitotic cells showing chromosome alignment defects in metaphase
cilia disassembly (hTERT-RPE1 cells): did not have any effect

Reference: patent EP2241565A1, “Aurora kinase inhibitors compounds” (Universität Leipzig, priority 2009, dated 2010)
